In patent US9126999B2, “Tetrahydropyrazolopyrimidine compounds” (EISAI R&D MANAGEMENT CO., LTD., priority 2012, dated 2015):

Assays:
Human TLR7/8 = tested on: T1, Human TLR7/8; assay: Human PBMC cell-based assay, R848 stimulus, IL-6 ELISA; details: Hu PBMC; ligand R848; analyte IL-6
T1 construct: IC50; other: Hu PBMC; ligand RNA-Ig; analyte IL-6; analyte TNFα; ligand R848; IC50 against the RNA-Ig TLR7/8 stimulus; cytokine responses to RNA-Ig complexes in vitro; potency against the RNA-Ig TLR7/8 stimulus versus HCQ
Method: (§1) Human peripheral blood mononuclear cells (PBMC) were isolated from freshly-drawn heparinized (10 USP units/ml, Hospira, Lakeforest, Ill.) healthy donor whole blood by density gradient (Histopaque® 1077, Sigma, Inc., St. Louis, Mo.). Briefly, 25 ml blood was diluted with 15 ml PBS (without Ca^2+, Mg^2+) in a 50 ml conical tube, and 12 ml Histopaque was underlaid using a spinal needle. Tubes were centrifuged for 45 minutes at 1200 rpm (350×g), and PBMC were collected from the buffy coat. Cells were then washed twice in PBS, and red blood cells were lysed by suspension in 5 ml ammonium chloride solution (1× Red Blood Cell Lysis Buffer, eBioscience) for 5 minutes at room temperature. […]
(§2) Antagonist compounds solubilized and serial diluted in 100% DMSO were added in triplicate to cells to yield a final concentration of 0.1% DMSO (v/v). […] Cell culture supernatants were collected, and levels of various human cytokines were assessed as indicated by standard ELISA procedure according to the manufacturer's recommended protocol (BD Biosciences, Inc., San Diego, Calif.).

Human TLR1/2 = target: T2, Human TLR1/2 (Homo sapiens, UniProt O60603+Q15399); assay: Human PBMC cell-based assay, Pam3CSK4 stimulus, IL-6 ELISA; details: Hu PBMC; ligand Pam3CSK4; analyte IL-6
T2 construct: endogenous in cells; host or cells: primary human PBMC from healthy donor blood
Method: as §1, §2

Human TLR4 = Human TLR4 (Homo sapiens, UniProt O00206); assay: HEK-293 NF-kappaB luciferase reporter assay, LPS stimulus; format: cell-based; parameters: engineered to stably and individually express human TLR4, TLR7 or TLR9 full-length ORF cDNAs; expressed in transfected cells; host or cells: HEK-293 (ATCC) with ELAM-1 NF-kappaB luciferase reporter; details: ligand LPS, analyte NFkB-luciferase
From the text: In vitro pharmacology: HEK-293 cells (ATCC) were engineered to stably express a NF-kappaB transcription factor inducible E-selectin (ELAM-1) luciferase reporter derived from the plasmid pGL3 (Promega) containing base pairs −2241 bp to −254 bp from the promoter of the human E-selectin gene (Accession No. NM_000450). These cells were then subsequently engineered to stably and individually express human TLR4, TLR7 or TLR9 full-length ORF cDNAs. Human TLR4 cDNA (Accession No. NM_138554) was cloned into pcDNA 3.0 expression vector (Invitrogen). TLR4 transfected cells were also engineered to express human MD-2 co-receptor [MD-2 cDNA (Accession No. NM_015364) was cloned into the pEF-BOS vector] and were supplemented with 10 nM soluble CD14 (R&D Systems) in the media to optimize LPS responsiveness. Human TLR9 cDNA (Accession No. NM_017442) was cloned into the pBluescript II KS vector (Agilent). Human TLR7 cDNA (Accession No. NM_016562) was obtained from OriGene. HEK-293 cells stably expressing human TLR8 (Accession No. NM_138636) or mouse TLR7 (Accession No. NM_133211) were purchased from InvivoGen and were then stably transfected with pNiFty2(NF-kappaB)-luciferase reporter plasmid (InvivoGen). […]

T2 sequence (Q15399 25-786): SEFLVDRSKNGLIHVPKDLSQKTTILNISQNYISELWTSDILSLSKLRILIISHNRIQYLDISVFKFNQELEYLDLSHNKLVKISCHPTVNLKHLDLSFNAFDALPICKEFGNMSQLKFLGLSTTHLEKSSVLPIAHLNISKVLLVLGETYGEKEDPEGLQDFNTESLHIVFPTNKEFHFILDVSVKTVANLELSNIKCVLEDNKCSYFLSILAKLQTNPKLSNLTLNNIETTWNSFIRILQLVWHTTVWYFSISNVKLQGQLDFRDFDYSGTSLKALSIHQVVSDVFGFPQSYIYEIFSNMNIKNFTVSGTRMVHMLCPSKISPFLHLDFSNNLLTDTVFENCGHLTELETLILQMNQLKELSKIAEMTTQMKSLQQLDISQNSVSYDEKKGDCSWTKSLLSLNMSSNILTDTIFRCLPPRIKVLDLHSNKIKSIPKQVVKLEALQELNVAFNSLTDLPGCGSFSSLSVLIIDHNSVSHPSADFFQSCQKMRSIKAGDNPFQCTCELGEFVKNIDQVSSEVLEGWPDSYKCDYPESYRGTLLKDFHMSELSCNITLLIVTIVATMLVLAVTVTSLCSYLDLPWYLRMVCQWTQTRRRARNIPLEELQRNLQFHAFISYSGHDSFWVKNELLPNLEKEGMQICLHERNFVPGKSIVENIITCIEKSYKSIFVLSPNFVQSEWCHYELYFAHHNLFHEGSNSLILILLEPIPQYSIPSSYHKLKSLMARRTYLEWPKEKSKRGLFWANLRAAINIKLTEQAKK
T2 sequence (O60603 19-784 limits assumed): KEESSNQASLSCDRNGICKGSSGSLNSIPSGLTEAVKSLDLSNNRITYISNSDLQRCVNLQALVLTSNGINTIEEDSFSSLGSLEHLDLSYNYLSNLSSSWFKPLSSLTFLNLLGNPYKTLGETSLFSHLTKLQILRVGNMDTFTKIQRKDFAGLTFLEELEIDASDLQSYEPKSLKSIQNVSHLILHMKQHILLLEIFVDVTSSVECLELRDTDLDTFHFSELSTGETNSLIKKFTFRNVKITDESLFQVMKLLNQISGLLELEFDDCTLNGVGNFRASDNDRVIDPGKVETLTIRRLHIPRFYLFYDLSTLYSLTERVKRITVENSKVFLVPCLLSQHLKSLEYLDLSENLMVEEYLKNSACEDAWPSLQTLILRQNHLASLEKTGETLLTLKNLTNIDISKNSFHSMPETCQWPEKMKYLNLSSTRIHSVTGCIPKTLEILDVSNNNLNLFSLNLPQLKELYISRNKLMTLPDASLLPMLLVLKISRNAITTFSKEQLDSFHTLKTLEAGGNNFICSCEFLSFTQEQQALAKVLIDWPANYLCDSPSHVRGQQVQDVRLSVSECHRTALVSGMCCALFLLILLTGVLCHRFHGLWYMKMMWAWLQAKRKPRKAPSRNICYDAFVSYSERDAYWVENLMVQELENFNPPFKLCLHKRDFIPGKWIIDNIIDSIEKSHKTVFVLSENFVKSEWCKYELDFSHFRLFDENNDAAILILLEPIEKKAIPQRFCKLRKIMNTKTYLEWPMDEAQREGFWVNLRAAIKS
Sequence of Human TLR4 (O00206 24-839): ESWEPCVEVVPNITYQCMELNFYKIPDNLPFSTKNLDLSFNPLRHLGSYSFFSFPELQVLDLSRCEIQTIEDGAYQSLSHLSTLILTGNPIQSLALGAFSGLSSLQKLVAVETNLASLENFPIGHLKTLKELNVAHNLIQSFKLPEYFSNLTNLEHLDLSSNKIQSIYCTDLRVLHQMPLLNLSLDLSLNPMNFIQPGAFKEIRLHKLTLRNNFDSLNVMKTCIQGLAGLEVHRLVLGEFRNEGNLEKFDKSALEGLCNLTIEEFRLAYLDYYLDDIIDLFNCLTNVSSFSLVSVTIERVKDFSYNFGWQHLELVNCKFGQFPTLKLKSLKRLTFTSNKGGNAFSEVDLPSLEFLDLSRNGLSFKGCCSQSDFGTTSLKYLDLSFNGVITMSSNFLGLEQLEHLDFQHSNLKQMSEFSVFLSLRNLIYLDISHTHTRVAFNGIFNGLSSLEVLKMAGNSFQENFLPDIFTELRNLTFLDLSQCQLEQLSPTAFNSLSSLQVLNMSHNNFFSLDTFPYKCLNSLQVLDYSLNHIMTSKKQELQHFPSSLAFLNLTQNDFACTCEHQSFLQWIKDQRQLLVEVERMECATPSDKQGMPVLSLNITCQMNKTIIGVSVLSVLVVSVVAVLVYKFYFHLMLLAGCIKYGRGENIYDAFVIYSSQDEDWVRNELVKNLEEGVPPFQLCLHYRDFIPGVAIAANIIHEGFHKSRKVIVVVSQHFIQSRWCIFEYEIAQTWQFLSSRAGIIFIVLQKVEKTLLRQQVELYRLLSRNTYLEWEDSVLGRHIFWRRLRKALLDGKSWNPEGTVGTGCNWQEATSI
Sequence of Human TLR4 (Q9Y6Y9 19-160 partner): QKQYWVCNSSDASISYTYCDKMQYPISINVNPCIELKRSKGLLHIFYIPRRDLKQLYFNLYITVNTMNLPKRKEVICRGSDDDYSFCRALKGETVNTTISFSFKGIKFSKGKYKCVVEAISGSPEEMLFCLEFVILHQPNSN

SMILES: COc1ccc([C@@H]2C[C@H](C(F)(F)F)n3nc(-c4ccc(C(=O)N5CCNCC5)cc4)cc3N2)cc1OC [ER-892887, (4-((5S,7R)-5-(3,4-dimethoxyphenyl)-7-(trifluoromethyl)-4,5,6,7-tetrahydropyrazolo[1,5-a]pyrimidin-2-yl)phenyl)(piperazin-1-yl)methanone]
- IC50 (Human TLR7/8): 0.016 µM
- IC50 (Human TLR1/2): > 10 µM
- IC50 (Human TLR4): > 10 µM
